Where a SMILES comes first, the peptide text is derived from it. Where no end group is shown, it is not given here. The star is where a group is joined. AMC = Cc1cc(=O)oc2cc(N*)ccc12; βNA = c1ccc2cc(N*)ccc2c1
Key:
[1] = tested on: DPP III fragment (1–679 aa); experiment: Kinetic analysis / specific activity of the DPP III fragment; type: biochemical, Porphyromonas gingivalis; details: for kcat/Km: DPP III fragment, pH 8.0, 100 μM CoCl2, enzyme 40–100 nM; for kcat/Km / Km / kcat: 26°C; for Km / kcat: fluorimetric, pH 8.0 Tris-HCl (ionic strength 0.01M), 100 μM CoCl2, enzyme 40–100 nM, mean of at least two independent experiments ± SD
PgDPP III = experiment: Substrate specificity for PgDPP III, dipeptidyl-2NA substrates; type: biochemical, Porphyromonas gingivalis; details: for substrate preference / hydrolysis rate (in words): dipeptidyl-2NA substrates; for Relative hydrolysis rate: standard colorimetric assay, 37°C, pH 8.0, 50 mM Tris-HCl (I = 0.01), 100 μM CoCl2, Arg-Arg-2NA listed as 100
Protocol: DPP III activity was determined by a standard colorimetric assay described previously using Arg-Arg-2-naphthylamide (Arg2-2NA) and Arg-Arg-7-amido-4-methylcoumarin (Arg2-AMC) as substrates, at 37°C and pH 8.0, in 50 mM Tris-HCl buffer (I = 0.01) containing 100 μM CoCl2. […] The kinetic parameters were determined from the initial reaction rates, using a nonlinear regression program (GraphPad Prism version 5.04; GraphPad, La Jolla, CA, USA).
Cloning, expression, and purification of the recombinant proteins was performed as described in the Materials and methods section. Enzyme activity was assayed using a set of synthetic dipeptide-2-naphthylamide substrates as described previously. Full-length PgDPP III and the DPP III fragment (a. acids 1–679) were purified to apparent homogeneity according to SDS-PAGE, with estimated molecular weights of 102000 and 78000, respectively, which was in agreement with their predicted molecular masses (Fig 1A). We cloned and attempted to express three C-terminal fragments of different sizes. Only one (amino acids 648–886) was detected on SDS-PAGE. However, it could not be purified as all expressed protein was in insoluble inclusion bodies. This problem was not solved by attempts to yield soluble protein by refolding from inclusion bodies.

[2] = tested on: Full length PgDPP III (1–886 aa); type: biochemical, Porphyromonas gingivalis; details: for kcat/Km: full length, pH 8.0, 100 μM CoCl2, enzyme 0.5–1 nM; for kcat/Km of PgDPP III, fold lower than human DPP III: human DPP III data ref 70
[3] = target: E433A variant of PgDPP III (Porphyromonas gingivalis, UniProt Q7MX92, E433A); experiment: biochemical; type: binding
[4] = tested on: putative DPP III from P. gingivalis strain ATCC 33277; details: recombinant protein of gene PGN_1645; cited from earlier work
From the text: (§1) Dipeptidyl peptidases of P. gingivalis have been the subject of extensive research because these exopeptidases liberate dipeptides from the amino-end of their natural substrates, and P. gingivalis is known to utilize dipeptides preferentially, instead of free amino acids, as the source of energy. Until now, beside DPP IV, which is a proven virulence factor, three other DPPs were reported: DPP5, DPP7 and DPP11 [67–69]. They are all serine peptidases, localized in the periplasm, but differ in their substrate specificity.

[5] = tested on: gingipain null-mutant KDP136 cells; details: compared to wild-type P. gingivalis ATCC 33277; cited from earlier work
From the text: as §1

[6] = DPP III fragment vs full length PgDPP III
[7] = Arg2-2NA, yeast enzyme data ref 70
[8] = fluorimetric, 26°C, pH 8.0 Tris-HCl (ionic strength 0.01M), 100 μM CoCl2, enzyme 0.5–1 nM, mean of at least two independent experiments ± SD

Sequence of E433A variant of PgDPP III (Q7MX92 whole entry E433A): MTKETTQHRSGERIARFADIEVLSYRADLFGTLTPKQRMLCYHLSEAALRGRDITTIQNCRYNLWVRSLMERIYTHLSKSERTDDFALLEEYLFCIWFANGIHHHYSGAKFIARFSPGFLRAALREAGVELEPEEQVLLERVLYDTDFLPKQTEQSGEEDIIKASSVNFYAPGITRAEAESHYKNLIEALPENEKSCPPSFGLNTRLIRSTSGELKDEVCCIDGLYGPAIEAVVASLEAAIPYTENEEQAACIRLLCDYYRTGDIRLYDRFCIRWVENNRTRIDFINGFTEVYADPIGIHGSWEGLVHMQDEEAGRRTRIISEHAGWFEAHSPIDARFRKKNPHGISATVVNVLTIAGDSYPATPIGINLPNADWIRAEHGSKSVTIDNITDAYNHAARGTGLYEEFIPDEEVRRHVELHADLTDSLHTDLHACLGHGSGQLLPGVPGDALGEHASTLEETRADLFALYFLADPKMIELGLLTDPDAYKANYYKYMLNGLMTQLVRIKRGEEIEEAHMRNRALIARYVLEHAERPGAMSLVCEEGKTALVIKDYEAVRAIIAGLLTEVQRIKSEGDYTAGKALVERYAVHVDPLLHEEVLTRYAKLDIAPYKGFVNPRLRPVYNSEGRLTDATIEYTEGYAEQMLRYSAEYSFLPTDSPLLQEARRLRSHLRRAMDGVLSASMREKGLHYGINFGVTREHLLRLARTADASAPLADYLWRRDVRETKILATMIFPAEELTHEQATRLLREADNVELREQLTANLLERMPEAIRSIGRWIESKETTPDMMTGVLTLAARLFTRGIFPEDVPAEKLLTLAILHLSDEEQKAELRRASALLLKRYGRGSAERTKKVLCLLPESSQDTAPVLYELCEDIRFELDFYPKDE

| Compound | Km increase when C-terminal domain was removed [1, 6] [fold] | reduction in catalytic efficiency when C-terminal domain was removed [1, 6] [fold] | kcat/Km [1] [M⁻¹ s⁻¹] | Km [1] [µM] | kcat [1] [s⁻¹] | Relative hydrolysis rate (PgDPP III) [%] | kcat [2, 8] [s⁻¹] | kcat/Km ([2]; 26°C) [M⁻¹ s⁻¹] | kcat/Km of PgDPP III, fold lower than human DPP III [2] [fold] | Kd [3] [µM] | further results |
| --- | --- | --- | --- | --- | --- | --- | --- | --- | --- | --- | --- |
| N=C(N)NCCC[C@H](NC(=O)[C@@H](N)CCCNC(=N)N)C(=O)Nc1ccc2ccccc2c1 [Arg-Arg-2NA, Arg-Arg-2-naphthylamide] (H-Arg-Arg-βNA) | 4 | 1050 | 732 | 4.37 ± 0.42 | 0.0032 ± 0.0005 | 100 | 0.75 ± 0.13 | 773200 | 12 | – | specific activity of DPP III fragment, fold lower than full-length protein ([1]; hydrolysis of Arg2-2NA, vs full-length PgDPP III): 250 fold; substrate preference / hydrolysis rate (in words) (PgDPP III; listed as Arg2-2NA): preference for Arg2-2NA; substrate preference / hydrolysis rate (in words) (PgDPP III; listed as diarginyl-2NA): PgDPP III prefers diarginyl-2NA; Km decrease, PgDPP III vs yeast counterpart [2, 7]: 12 fold; kcat increase, PgDPP III vs yeast counterpart [2, 7]: 4.2 fold; kcat/Km of full-length PgDPP III, fold higher than yeast counterpart [2, 7]: 50 fold; Km and kcat compared to B. thetaiotaomicron DPP III (in words) ([2]; BtDPP III data ref 24): similarities in Km and kcat values; Km [2, 8]: 0.97 ± 0.16 µM; catalytic efficiency, Arg-Arg-2NA fold higher than Arg-Arg-AMC ([2]; full length PgDPP III): 6.8 fold; kcat, Arg-Arg-2NA fold higher than Arg-Arg-AMC ([2]; full length PgDPP III): 2.6 fold |
| NC(N)=NCCCC(NC(=O)c1ccccc1)C(=O)Nc1ccc2ccccc2c1 (stereo not shown) [BANA] | – | – | – | – | – | 0 | – | – | – | – | – |
| CC[C@H](C)[C@H](NC(=O)[C@H](Cc1ccc(O)cc1)NC(=O)[C@@H](NC(=O)[C@H](CCCNC(=N)N)NC(=O)[C@@H](N)CC(=O)O)C(C)C)C(=O)N[C@@H](Cc1cnc[nH]1)C(=O)N1CCC[C@H]1C(=O)N[C@@H](Cc1ccccc1)C(=O)O [angiotensin II] | – | – | – | – | – | – | – | – | – | 0.9 ± 0.12 | – |
| VVYPW [tynorphin] | – | – | – | – | – | – | – | – | – | 7.3 ± 0.83 | – |
| Cc1cc(=O)oc2cc(NC(=O)[C@H](CCCNC(=N)N)NC(=O)[C@@H](N)CCCNC(=N)N)ccc12 [Arg-Arg-AMC, Arg-Arg-7-amido-4-methylcoumarin] (H-Arg-Arg-{AMC}) | 4 | 470 | 241 | 9.97 ± 0.44 | 0.0024 ± 0.0014 | – | 0.29 ± 0.11 | 113280 | 26 | – | kcat reduction when C-terminal domain was removed [1, 6]: 120 fold; activity among dipeptidyl-AMC substrates (in words) [4]: highest activity; hydrolysis by mutant cells (in words) [5]: defects in Arg-Arg-AMC hydrolysis |
| CC[C@H](C)[C@H](N)C(=O)N[C@H](C(=O)N[C@@H](Cc1ccc(O)cc1)C(=O)N1CCC[C@H]1C(=O)N[C@@H](Cc1c[nH]c2ccccc12)C(=O)O)C(C)C [IVYPW] | – | – | – | – | – | – | – | – | – | 9.35 ± 0.73 | – |

— publication PMC5708649, “A novel Porphyromonas gingivalis enzyme: An atypical dipeptidyl peptidase III with an ARM repeat domain” (PLoS ONE, 2017)
